In publication PMC10931833, “Simultaneous Purification of Human Interferon Alpha-2b and Serum Albumin Using Bioprivileged Fluorinated Ionic Liquid-Based Aqueous Biphasic Systems” (International Journal of Molecular Sciences, 2024):
Read-outs that look alike come from different tables or passages of the source.

How the values were obtained:
BSA [1] = target: T1, BSA (Bos taurus, UniProt P02769); test: DSC thermal unfolding of BSA in water and aqueous solutions of ABS phase-forming components; assay type: physicochemical, bovine
T1 construct: purchased Millipore Sigma-Aldrich
Experimental: Differential scanning calorimetry (DSC) measurements were performed with Nano DSC equipment, as detailed in Section 3, and used to determine the melting temperature (T m ) and enthalpy ( Δ H) of protein unfolding. DSC analyzes changes in the structure and stability of proteins as thermal transitions at the nanoscale. Using DSC to measure heat capacity as a function of the temperature of a well-studied protein such as BSA provides keen insights into folding and unfolding processes, as well as factors affecting stability. Due to the volume and concentration requirements of the DSC technique, and the constraints in available quantities of IFN- α 2b the DSC experiments on the ABS phase-forming components’ effect on the structural properties of proteins were attained only for BSA.
The T m of BSA, which corresponds to the thermal unfolding transition midpoint, was measured in the absence and presence of the ABS phase-forming components at increasing concentrations (see Figure 1 and Table 2).

BSA [2] = target: T1, BSA; test: Far-UV CD secondary structure of BSA (CONTIN-LL deconvolution); assay type: physicochemical, bovine; set-up: Regular Alpha Helix / Distorted Alpha Helix / Regular Beta Sheet / Distorted Beta Sheet / Turns / Unordered: unit not given here; details: for Distorted Alpha Helix / Distorted Beta Sheet / Regular Alpha Helix / Regular Beta Sheet / Turns / Unordered: 25 °C
From the text: Circular dichroism (CD) is widely used to study the secondary structures of proteins, peptides and nucleic acids, because it requires a low concentration sample, is a nondestructive method, allows studying a wide range of variables (temperature, pH, etc.), and provides information on the effect of added ligands on protein folding and interactions. Far-UV (190–260 nm) CD spectroscopy was used to assess the IFN- α 2b and BSA secondary structure since the spectra are characteristic of different structural elements.
Circular dichroism (CD) spectra were collected in a 10 mm quartz cuvette and a Chirascan spectropolarimeter (Applied Photophysics, UK) at room temperature. All CD spectra were recorded in the far-UV range of 190 to 260 nm at scan rates of 50 nm/min, with 4 accumulations, and a response time of 3 s; CD spectra were collected. For each CD experiment, two distinct duplicates were acquired and combined. BSA was fixed at 1 mg/mL, solvent concentrations ranging from 0.1 to 200 mM were used, and the spectra were translated to MRE after being expressed in terms of molar ellipticity. Spectral deconvolution was carried out with DichroWeb using the CONTIN-LL deconvolution algorithm with the SMP180 reference set.

BSA [3] = target: T1, BSA; test: CD thermal unfolding (Tm) of BSA; assay type: physicochemical, bovine
From the text: The thermal stability assessed by far-UV CD is solely determined through the thermal decay of the alpha-helical structure.

FITC-BSA = target: T2, FITC-BSA (Bos taurus, UniProt P02769); test: MST binding to FITC-BSA; set-up: species or system bovine; details: 0.41 μM BSA
T2 construct: purchased Millipore Sigma-Aldrich
Experimental: Herein, a commercial FITC labeling kit (Section 3) was used to fluorescently tag both IFN- α 2b and BSA. Typically, in the labeling process, one amine per protein is labeled, statistically distributing the position of the dye. […] The MST assay was performed as detailed in Section 3. The solutions were prepared with a concentration of IFN- α 2b and BSA fixed at 0.41 μ M in water. For IFN- α 2b a concentration of 2.7 μ M was also prepared to compare it with previous results on MST-binding between FILs and IFN- α 2b fluorescently labeled with a different tag. In each run of MST, a maximum concentration of a ligand is selected and consecutively diluted in sixteen capillaries. […] The experimental conditions of the MST assay only allow the study of the aggregation phenomenon individually for the first CAC.
Microscale thermophoresis (MST) measurements of the dye-labeled protein were used to conduct binding investigations. […] MST tests were conducted in a monolith NT.115 (blue/red) in accordance with the NanoTemper Technologies methodology. Medium MST power and 20% LED power (nano-blue) were set as the instrument’s default settings. For every MST measurement, a PBS buffer was used. The concentration of FITC-BSA was fixed at 0.4 μ M and FITC-IFN- α 2b was tested under two different concentrations (of 0.4 and 2.7 μ M). The ligand was used to create a set of 16 1:1 dilutions, with the starting ligand concentrations ranging from 10 to 400 mM. The typical parameters for MST traces were used for recording: […], 30 s MST power on, and 5 s MST power off. The data from three independently conducted pipetted experiments were examined using NanoTemper Technologies’ MO.Affinity Analysis software, version 2.3.

[4] = 1.0 mg/mL BSA, 0.1 mM component
[5] = 1.0 mg/mL BSA, 120 mM component
[6] = 1.0 mg/mL BSA, 200 mM component
[7] = 1.0 mg/ml BSA, 200 mM component aqueous solution
[8] = 1.2-1.6 mg/mL BSA in [N1112(OH)][H2PO4]-rich phase of BP#8

T1 sequence (P02769 25-607): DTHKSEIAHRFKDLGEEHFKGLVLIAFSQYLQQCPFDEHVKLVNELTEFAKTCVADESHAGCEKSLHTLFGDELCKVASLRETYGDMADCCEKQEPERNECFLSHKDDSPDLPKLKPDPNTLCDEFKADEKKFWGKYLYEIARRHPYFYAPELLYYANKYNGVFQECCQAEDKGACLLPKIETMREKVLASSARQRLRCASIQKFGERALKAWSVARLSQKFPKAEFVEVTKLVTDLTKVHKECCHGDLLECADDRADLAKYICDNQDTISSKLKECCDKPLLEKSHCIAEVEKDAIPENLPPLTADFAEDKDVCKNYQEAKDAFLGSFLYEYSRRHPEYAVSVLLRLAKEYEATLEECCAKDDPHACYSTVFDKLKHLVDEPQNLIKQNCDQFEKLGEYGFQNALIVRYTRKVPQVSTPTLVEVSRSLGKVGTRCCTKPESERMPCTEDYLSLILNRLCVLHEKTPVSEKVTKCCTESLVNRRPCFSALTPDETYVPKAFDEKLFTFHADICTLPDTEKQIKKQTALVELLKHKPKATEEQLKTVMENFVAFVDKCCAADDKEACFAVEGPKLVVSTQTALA
T2 sequence (P02769 25-607): as above

Compound: OC[C@H]1O[C@@](CO)(O[C@H]2O[C@H](CO)[C@@H](O)[C@H](O)[C@H]2O)[C@@H](O)[C@@H]1O [Sucrose, sucrose]
- Tm (BSA [1]; [4]): 79.97 °C
- ΔG (BSA [1]; [4]): 82.00 kJ/mol
- ΔHcal (BSA [1]; [4]): 523.2 kJ/mol
- ΔHcal/ΔHvH (BSA [1]; [4]): 0.968
- ΔHvH (BSA [1]; [4]): 540.7 kJ/mol
- ΔS (BSA [1]; [4]): 1.480 KJ/(mol.K)
- Tm (BSA [1]; 1.0 mg/mL BSA, 1 mM component): 81.63 °C
- ΔG (BSA [1]; 1.0 mg/mL BSA, 1 mM component): 112.0 kJ/mol
- ΔHcal (BSA [1]; 1.0 mg/mL BSA, 1 mM component): 700.6 kJ/mol
- ΔHcal/ΔHvH (BSA [1]; 1.0 mg/mL BSA, 1 mM component): 0.980
- ΔHvH (BSA [1]; 1.0 mg/mL BSA, 1 mM component): 714.5 kJ/mol
- ΔS (BSA [1]; 1.0 mg/mL BSA, 1 mM component): 1.974 KJ/(mol.K)
- Tm (BSA [1]; 1.0 mg/mL BSA, 5 mM component): 80.68 °C
- ΔG (BSA [1]; 1.0 mg/mL BSA, 5 mM component): 87.30 kJ/mol
- ΔHcal (BSA [1]; 1.0 mg/mL BSA, 5 mM component): 550.0 kJ/mol
- ΔHcal/ΔHvH (BSA [1]; 1.0 mg/mL BSA, 5 mM component): 1.018
- ΔHvH (BSA [1]; 1.0 mg/mL BSA, 5 mM component): 540.3 kJ/mol
- ΔS (BSA [1]; 1.0 mg/mL BSA, 5 mM component): 1.552 KJ/(mol.K)
- Tm (BSA [1]; 1.0 mg/mL BSA, 10 mM component): 80.77 °C
- ΔG (BSA [1]; 1.0 mg/mL BSA, 10 mM component): 105.3 kJ/mol
- ΔHcal (BSA [1]; 1.0 mg/mL BSA, 10 mM component): 665.1 kJ/mol
- ΔHcal/ΔHvH (BSA [1]; 1.0 mg/mL BSA, 10 mM component): 1.046
- ΔHvH (BSA [1]; 1.0 mg/mL BSA, 10 mM component): 635.6 kJ/mol
- ΔS (BSA [1]; 1.0 mg/mL BSA, 10 mM component): 1.878 KJ/(mol.K)
- effect on BSA Tm (DSC) (BSA [1]; tested concentration range vs water): maintained
- Distorted Alpha Helix (BSA [2]; [4]): 0.205
- Distorted Beta Sheet (BSA [2]; [4]): 0.026
- Regular Alpha Helix (BSA [2]; [4]): 0.391
- Regular Beta Sheet (BSA [2]; [4]): 0.000
- Turns (BSA [2]; [4]): 0.136
- Unordered (BSA [2]; [4]): 0.242
- Distorted Alpha Helix (BSA [2]; 1.0 mg/mL BSA, 1 mM component): 0.216
- Distorted Beta Sheet (BSA [2]; 1.0 mg/mL BSA, 1 mM component): 0.023
- Regular Alpha Helix (BSA [2]; 1.0 mg/mL BSA, 1 mM component): 0.428
- Regular Beta Sheet (BSA [2]; 1.0 mg/mL BSA, 1 mM component): 0.000
- Turns (BSA [2]; 1.0 mg/mL BSA, 1 mM component): 0.135
- Unordered (BSA [2]; 1.0 mg/mL BSA, 1 mM component): 0.198
- Distorted Alpha Helix (BSA [2]; 1.0 mg/mL BSA, 5 mM component): 0.225
- Distorted Beta Sheet (BSA [2]; 1.0 mg/mL BSA, 5 mM component): 0.022
- Regular Alpha Helix (BSA [2]; 1.0 mg/mL BSA, 5 mM component): 0.427
- Regular Beta Sheet (BSA [2]; 1.0 mg/mL BSA, 5 mM component): 0.000
- Turns (BSA [2]; 1.0 mg/mL BSA, 5 mM component): 0.136
- Unordered (BSA [2]; 1.0 mg/mL BSA, 5 mM component): 0.19
- Distorted Alpha Helix (BSA [2]; 1.0 mg/mL BSA, 25 mM component): 0.196
- Distorted Beta Sheet (BSA [2]; 1.0 mg/mL BSA, 25 mM component): 0.024
- Regular Alpha Helix (BSA [2]; 1.0 mg/mL BSA, 25 mM component): 0.333
- Regular Beta Sheet (BSA [2]; 1.0 mg/mL BSA, 25 mM component): 0.004
- Turns (BSA [2]; 1.0 mg/mL BSA, 25 mM component): 0.131
- Unordered (BSA [2]; 1.0 mg/mL BSA, 25 mM component): 0.312
- Distorted Alpha Helix (BSA [2]; 1.0 mg/mL BSA, 55 mM component): 0.211
- Distorted Beta Sheet (BSA [2]; 1.0 mg/mL BSA, 55 mM component): 0.026
- Regular Alpha Helix (BSA [2]; 1.0 mg/mL BSA, 55 mM component): 0.412
- Regular Beta Sheet (BSA [2]; 1.0 mg/mL BSA, 55 mM component): 0.000
- Turns (BSA [2]; 1.0 mg/mL BSA, 55 mM component): 0.138
- Unordered (BSA [2]; 1.0 mg/mL BSA, 55 mM component): 0.214
- Distorted Alpha Helix (BSA [2]; 1.0 mg/mL BSA, 90 mM component): 0.211
- Distorted Beta Sheet (BSA [2]; 1.0 mg/mL BSA, 90 mM component): 0.025
- Regular Alpha Helix (BSA [2]; 1.0 mg/mL BSA, 90 mM component): 0.4
- Regular Beta Sheet (BSA [2]; 1.0 mg/mL BSA, 90 mM component): 0.000
- Turns (BSA [2]; 1.0 mg/mL BSA, 90 mM component): 0.137
- Unordered (BSA [2]; 1.0 mg/mL BSA, 90 mM component): 0.227
- Distorted Alpha Helix (BSA [2]; [5]): 0.212
- Distorted Beta Sheet (BSA [2]; [5]): 0.025
- Regular Alpha Helix (BSA [2]; [5]): 0.415
- Regular Beta Sheet (BSA [2]; [5]): 0.000
- Turns (BSA [2]; [5]): 0.135
- Unordered (BSA [2]; [5]): 0.213
- Distorted Alpha Helix (BSA [2]; [6]): 0.216
- Distorted Beta Sheet (BSA [2]; [6]): 0.024
- Regular Alpha Helix (BSA [2]; [6]): 0.436
- Regular Beta Sheet (BSA [2]; [6]): 0.000
- Turns (BSA [2]; [6]): 0.136
- Unordered (BSA [2]; [6]): 0.189
- Tm, Ellipticity 192 nm (BSA [3]; [7]): 70.098 °C
- Tm, Ellipticity 208 nm (BSA [3]; [7]): 73.063 °C
- Tm, Ellipticity 222 nm (BSA [3]; [7]): 71.977 °C
- Kd (FITC-BSA; max. conc. first capillary 12.5 mM (monomer)): no binding detected
- Kd (FITC-BSA; max. conc. first capillary 400 mM (monomer)): no binding detected

Compound: O=S(=O)(O)C(F)(F)C(F)(F)C(F)(F)C(F)(F)F [[N1112(OH)][C4F9SO3], (2-hydroxyethyl)trimethylammonium perfluorobutane sulfonate]
- Kd (FITC-BSA; max. conc. first capillary in 1st CAC range, read-out: Kd): 860 ± 190 µM
- Kd (FITC-BSA; max. conc. first capillary in 2nd CAC range, read-out: Kd): 1490 ± 300 µM

Compound: Bovine serum albumin [BSA]
- ΔG (BSA [1]; 1.0 mg/mL BSA in water): 70.60 kJ/mol
- ΔHcal (BSA [1]; 1.0 mg/mL BSA in water): 476.4 kJ/mol
- ΔHvH (BSA [1]; 1.0 mg/mL BSA in water): 470.3 kJ/mol
- ΔS (BSA [1]; 1.0 mg/mL BSA in water): 1.361 KJ/(mol.K)
- Distorted Alpha Helix (BSA [2]; 1.0 mg/mL BSA in water): 0.206
- Distorted Beta Sheet (BSA [2]; 1.0 mg/mL BSA in water): 0.025
- Regular Alpha Helix (BSA [2]; 1.0 mg/mL BSA in water): 0.400
- Regular Beta Sheet (BSA [2]; 1.0 mg/mL BSA in water): 0.000
- Turns (BSA [2]; 1.0 mg/mL BSA in water): 0.136
- Unordered (BSA [2]; 1.0 mg/mL BSA in water): 0.233
- predicted α-helical content (BSA [2]; BSA in water, CD deconvolution): 0.61
- Tm, Ellipticity 192 nm (BSA [3]; 1.0 mg/mL BSA in water): 74.028 °C
- Tm, Ellipticity 208 nm (BSA [3]; 1.0 mg/mL BSA in water): 74.616 °C
- Tm, Ellipticity 222 nm (BSA [3]; 1.0 mg/mL BSA in water): 76.277 °C
- Tm, Ellipticity 208 nm (BSA [3]; [8]): 76.122 °C
- Tm, Ellipticity 222 nm (BSA [3]; [8]): 80.396 °C
